Legend:
[1] = tested on: Mycobacterium smegmatis 607; test: Antimicrobial potency, cylinder agar plate method, Bleomycin A2 (copper-free base) assumed as 1000 U/mg; format: cell-based; conditions: for Antimicrobial potency: Mycobacterium smegmatis 607
Experimental: 1. Antimicrobial potency was assayed by a cylinder agar plate method on the basis of Bleomycin A2 (copper-free base) assumed as 1000 U/mg, using Mycobacterium smegmatis 607 as test organism.
^(1) Assayed by a cylinder-agar plate method using Mycobacterium
smegmatis 607 as test organism, the potency of bleomycin A2
(copper-free base) being assumed as 1000 unit/mg.
The resulting compound has 0.65 of Rf value of the Silica gel thin layer chromatograph (CH3 OH: 10 %-CH3 COONH4 : 10 %-NH4 OH = 10 : 9 : 1) and 0.53 of Rf value of the Avicel thin layer chromatography (n-C3 H7 OH : pyridine : CH3 COOH : H2 O = 15 : 10 : 3 : 12) which are same with those of the 3-morpholinopropylaminobleomycin. The antimicrobial activity to Mycobacterium smegmatis 607 by the cylinder-agar plate method (the standard copper-free bleomycin A2 free base 1,000 U/mg) was 605 U/mg.

[2] = tested on: Ehrlich ascites carcinoma; test: Antitumor activity and toxicity in ICR-SLC mouse inoculated with Ehrlich ascites carcinoma, i.p. for ten consecutive days; format: in vivo; conditions: for Chemotherapeutic index: Table 5, ten consecutive days into peritoneal cavity, evaluated 50 days after beginning; for Chemotherapeutic index (LD50/ED50): Tables 2 to 4; for Chemotherapeutic index (LD50/ED50) / LD50 (50 % lethal dose) / ED50 (50 % effective dose): i.p., for 10 days, 72000 min; for LD50 (50 % lethal dose): Behrens-Karber method; for ED50 (50 % effective dose): maximum dose level within the range of longevity ratio of 100 to 200
Experimental: The phleomycin was administered for ten consecutive days into peritoneal cavity of a ICR-SLC mouse, into which Ehrlich ascites carcinoma had been inoculated. Fifty days after the beginning of the experiment, measurements were made for (1) the number of dead mouse owing to toxicity, (2) the number of survived mouse, (3) mean survival period in 50 days, and (4) the ratio of mean survival period to that of reference mouse multiplied by 100. The chemotherapeutic index was calculated from the values of ED50 (50 % effective dose) and LD50 (50 % lethal dose) which were obtained as given below.
ED50 value: The maximum dose level within the range of logevity ratio of 100 to 200.
LD50 value: Calculated according to Behrens-Karber method from the data of (1) and (2).
^(2) A bleomycin was administered for ten consecutive days into
peritoneal cavity of a ICR-SLC mouse, where Ehrlich ascites carcinoma had
been inoculated, and 50 days after the beginning of experiment the […]

[3] = phleomycins of Table 1, Bleomycin A2 (copper-free base) = 1000 U/mg
[4] = bleomycins of Table 5, bleomycin A2 (copper-free base) = 1000 unit/mg
[5] = 0.19 mg/kg/day for 10 days i.p.
[6] = 0.39 mg/kg/day for 10 days i.p.
[7] = 0.78 mg/kg/day for 10 days i.p.
[8] = 1.56 mg/kg/day for 10 days i.p.
[9] = 3.12 mg/kg/day for 10 days i.p.
[10] = 6.25 mg/kg/day for 10 days i.p.
[11] = 12.5 mg/kg/day for 10 days i.p.
[12] = 25.0 mg/kg/day for 10 days i.p.

For 2-(Imidazol-4-yl)ethylaminophleomycin, the Antimicrobial potency [1, 3] was 678 unit/mg.
With 2-N,N-Diethylaminoethylaminophleomycin the Antimicrobial potency [1, 3] was 882 unit/mg.
2-N,N-Dimethylaminoethylaminobleomycin was tested, and the Chemotherapeutic index [2] was 7.8 and the Antimicrobial potency [1, 4] was 897 Unit/mg.
In the case of 2-N,N-Dimethylaminoethylaminophleomycin, the Antimicrobial potency [1, 3] is reported as 718 unit/mg.
Substance “3-(3-Morpholinopropylamino)propylaminophleomycin” has an Antimicrobial potency [1, 3] of 961 unit/mg.
For “3-(3-N,N-Dimethylaminopropylamino)propylaminobleomycin”, the Chemotherapeutic index [2] was 54 and the Antimicrobial potency [1, 4] was 1670 Unit/mg.
In the case of “3-(3-N-Benzylaminopropylamino)propylaminobleomycin”, the Chemotherapeutic index [2] is reported as 24.0 and the Antimicrobial potency [1, 4] is reported as 6000 Unit/mg.
Work on “3-(3-N-Benzylaminopropylamino)propylaminophleomycin” yielded an Antimicrobial potency [1, 3] of 6710 unit/mg.
With “3-(3-N-Cyclohexylaminopropylamino)propylaminobleomycin” the Chemotherapeutic index [2] was 39.5 and the Antimicrobial potency [1, 4] was 12335 Unit/mg.
Substance “3-(3-N-Cyclohexylaminopropylamino)propylaminophleomycin” has an Antimicrobial potency [1, 3] of 8570 unit/mg.
Substance “3-(3-N-n-Butylaminopropylamino)propylaminobleomycin” has a Chemotherapeutic index [2] of 59.2 and an Antimicrobial potency [1, 4] of 5840 Unit/mg.
For “3-(3-N-n-Butylaminopropylamino)propylaminophleomycin”, the Antimicrobial potency [1, 3] was 4672 unit/mg.
Work on “3-(3-Piperidinopropylamino)propylaminobleomycin” yielded a Chemotherapeutic index [2] of 16.8 and an Antimicrobial potency [1, 4] of 3580 Unit/mg.
Substance “3-(3-Piperidinopropylamino)propylaminophleomycin” has an Antimicrobial potency [1, 3] of 2864 unit/mg.
For “3-(3-Pyrrolidinopropylamino)propylaminobleomycin”, the Chemotherapeutic index [2] was 26.4 and the Antimicrobial potency [1, 4] was 3286 Unit/mg.
“3-(3-Pyrrolidinopropylamino)propylaminophleomycin” showed an Antimicrobial potency [1, 3] of 2051 unit/mg.
“3-(N,N,N-Trimethylamino)propylaminophleomycin chloride” gave an Antimicrobial potency [1, 3] of 506 unit/mg.
In the case of “3-(N,N-Dimethylaminopropylamino)propylaminophleomycin”, the Antimicrobial potency [1, 3] is reported as 1336 unit/mg.
In the case of 3-Amidinopropylaminophleomycin, the Antimicrobial potency [1, 3] is reported as 2500 unit/mg.
For 3-Guanidinopropylaminophleomycin, the Antimicrobial potency [1, 3] was 2300 unit/mg.
3-Morpholinopropylaminobleomycin was tested, and the “Average longevity (mean survival period in 50 days)” value (“Average longevity” for short) [2, 5] was 11.8, the “Longevity ratio (mean survival period to that of reference mouse multiplied by 100)” value (shortened to “Longevity ratio”) [2, 5] was 97 and the “Toxicity, number dead/total number” value [2, 5] was 0/5. The “Viability (after 50 days), number survived/total number” value [2, 5] was 0/5, the “Average longevity” value [2, 6] was 11.8 and the “Longevity ratio” value [2, 6] was 97. For the same substance, the “Toxicity, number dead/total number” value [2, 6] was 0/5, the “Viability (after 50 days), number survived/total number” value [2, 6] was 0/5 and the “Average longevity” value [2, 7] was 33.0. The “Longevity ratio” value [2, 7] was 270, the “Toxicity, number dead/total number” value [2, 7] was 0/5 and the “Viability (after 50 days), number survived/total number” value [2, 7] was 2/5. The “Average longevity” value [2, 8] was 36.6, the “Longevity ratio” value [2, 8] was 300 and the “Toxicity, number dead/total number” value [2, 8] was 0/5. For the same substance, the “Viability (after 50 days), number survived/total number” value [2, 8] was 3/5, the “Average longevity” value [2, 9] was 45.2 and the “Longevity ratio” value [2, 9] was 370. The “Toxicity, number dead/total number” value [2, 9] was 0/5, the “Viability (after 50 days), number survived/total number” value [2, 9] was 4/5 and the “Average longevity” value [2, 10] was 34.2. For the same substance, the “Longevity ratio” value [2, 10] was 280, the “Toxicity, number dead/total number” value [2, 10] was 2/5 and the “Viability (after 50 days), number survived/total number” value [2, 10] was 3/5. For the same substance, the “Average longevity” value [2, 11] was 30.4, the “Longevity ratio” value [2, 11] was 249 and the “Toxicity, number dead/total number” value [2, 11] was 4/5. The “Viability (after 50 days), number survived/total number” value [2, 11] was 1/5, the “Average longevity” value [2, 12] was 12.4 and the “Longevity ratio” value [2, 12] was 102. For the same substance, the “Toxicity, number dead/total number” value [2, 12] was 5/5, the “Viability (after 50 days), number survived/total number” value [2, 12] was 0/5 and the Chemotherapeutic index [2] was 21.7. The “Chemotherapeutic index (LD50/ED50)” value [2] was 12.1, the “LD50 (50 % lethal dose)” value [2] was 9.4 mg/kg/day and the “ED50 (50 % effective dose)” value [2] was 0.78 mg/kg/day. For the same substance, the “Antimicrobial activity to Mycobacterium smegmatis 607” value ([1]; Referential Example, standard copper-free bleomycin A2 free base 1,000 U/mg) was 605 U/mg and the Antimicrobial potency [1, 4] was 592 Unit/mg.
3-Morpholinopropylaminophleomycin was tested, and the “Average longevity” value [2, 5] was 20.6, the “Longevity ratio” value [2, 5] was 167 and the “Toxicity, number dead/total number” value [2, 5] was 0/5. For the same substance, the “Viability (after 50 days), number survived/total number” value [2, 5] was 0/5, the “Average longevity” value [2, 6] was 16.2 and the “Longevity ratio” value [2, 6] was 133. The “Toxicity, number dead/total number” value [2, 6] was 0/5, the “Viability (after 50 days), number survived/total number” value [2, 6] was 0/5 and the “Average longevity” value [2, 7] was 22.8. The “Longevity ratio” value [2, 7] was 187, the “Toxicity, number dead/total number” value [2, 7] was 0/5 and the “Viability (after 50 days), number survived/total number” value [2, 7] was 0/5. For the same substance, the “Average longevity” value [2, 8] was 35.0, the “Longevity ratio” value [2, 8] was 287 and the “Toxicity, number dead/total number” value [2, 8] was 0/5. The “Viability (after 50 days), number survived/total number” value [2, 8] was 2/5, the “Average longevity” value [2, 9] was 49.2 and the “Longevity ratio” value [2, 9] was 403. The “Toxicity, number dead/total number” value [2, 9] was 0/5, the “Viability (after 50 days), number survived/total number” value [2, 9] was 5/5 and the “Average longevity” value [2, 10] was 50.0. For the same substance, the “Longevity ratio” value [2, 10] was 410, the “Toxicity, number dead/total number” value [2, 10] was 0/5 and the “Viability (after 50 days), number survived/total number” value [2, 10] was 5/5. For the same substance, the “Average longevity” value [2, 11] was 39.2, the “Longevity ratio” value [2, 11] was 321 and the “Toxicity, number dead/total number” value [2, 11] was 2/5. The “Viability (after 50 days), number survived/total number” value [2, 11] was 3/5, the “Average longevity” value [2, 12] was 26.2 and the “Longevity ratio” value [2, 12] was 215. For the same substance, the “Toxicity, number dead/total number” value [2, 12] was 5/5, the “Viability (after 50 days), number survived/total number” value [2, 12] was 0/5 and the “Chemotherapeutic index (LD50/ED50)” value [2] was 19.2. For the same substance, the “Prolongation effect on the survival period of ICR-SLC mouse inoculated with Ehrlich ascites carcinoma” value ([2]; as shown in Tables 2 and 3) was “distinct prolongation effect”, the “LD50 (50 % lethal dose)” value [2] was 15.0 mg/kg/day and the “ED50 (50 % effective dose)” value [2] was 0.78 mg/kg/day. For the same substance, the “Chemotherapeutic index compared with 3-morpholinopropylaminobleomycin” value ([2]; same terminal amine Y) was “practically same order” and the Antimicrobial potency [1, 3] was 474 unit/mg.
3-N,N-Diethylaminopropylaminobleomycin showed a Chemotherapeutic index [2] of 34.5 and an Antimicrobial potency [1, 4] of 1036 Unit/mg.
3-N,N-Diethylaminopropylaminophleomycin gave an Antimicrobial potency [1, 3] of 829 unit/mg.
Work on 3-N,N-Dimethylaminopropylaminobleomycin yielded a Chemotherapeutic index [2] of 20.4 and an Antimicrobial potency [1, 4] of 806 Unit/mg.
Work on “3-N,N-Dimethylaminopropylaminophleomycin” yielded an Antimicrobial potency [1, 3] of 648 unit/mg.
Work on “3-N-(1-Phenylethyl)aminopropylaminobleomycin” yielded a Chemotherapeutic index [2] of 59.2 and an Antimicrobial potency [1, 4] of 5320 Unit/mg.
“3-N-(1-Phenylethyl)aminopropylaminophleomycin” showed an Antimicrobial potency [1, 3] of 4030 unit/mg.
“3-N-(3,3-Dichloropropyl)aminopropylaminophleomycin” gave an Antimicrobial potency [1, 3] of 3120 unit/mg.
Work on “3-N-(3-Hydroxypropyl)aminopropylaminobleomycin” yielded a Chemotherapeutic index [2] of 29.6 and an Antimicrobial potency [1, 4] of 1021 Unit/mg.
For “3-N-(3-Hydroxypropyl)aminopropylaminophleomycin”, the Antimicrobial potency [1, 3] was 845 unit/mg.
In the case of 3-N-Benzylaminopropylaminophleomycin, the Antimicrobial potency [1, 3] is reported as 3373 unit/mg.
“3-N-Cyclohexylaminopropylaminophleomycin” was tested, and the Antimicrobial potency [1, 3] was 4284 unit/mg.
3-N-Methylaminopropylaminophleomycin gave an Antimicrobial potency [1, 3] of 688 unit/mg.
Work on 3-N-Propenylaminopropylaminophleomycin yielded an Antimicrobial potency [1, 3] of 2100 unit/mg.
For 3-N-n-Butylaminopropylaminophleomycin, the Antimicrobial potency [1, 3] was 3535 unit/mg.
Work on “3-N-tert-Butylaminopropylaminophleomycin” yielded an Antimicrobial potency [1, 3] of 3520 unit/mg.
3-Piperazinopropylaminophleomycin showed an Antimicrobial potency [1, 3] of 581 unit/mg.
3-Piperidinopropylaminophleomycin showed an Antimicrobial potency [1, 3] of 1006 unit/mg.
With 3-Pyrrolidinopropylaminophleomycin the Antimicrobial potency [1, 3] was 853 unit/mg.
Substance “3-[3-N-(1-phenylethyl)aminopropylamino]propylaminophleomycin” has an Antimicrobial potency [1, 3] of 7208 unit/mg.
